Legend:
[1] = molecular target: T1, Protein kinase C iota type (Homo sapiens) (UniProt P41743); assay: Selectivity interaction (KinomeScan (DiscoverX)) EUB0000229b PRKCI; settings: at 10 µM
T1 sequence (whole entry): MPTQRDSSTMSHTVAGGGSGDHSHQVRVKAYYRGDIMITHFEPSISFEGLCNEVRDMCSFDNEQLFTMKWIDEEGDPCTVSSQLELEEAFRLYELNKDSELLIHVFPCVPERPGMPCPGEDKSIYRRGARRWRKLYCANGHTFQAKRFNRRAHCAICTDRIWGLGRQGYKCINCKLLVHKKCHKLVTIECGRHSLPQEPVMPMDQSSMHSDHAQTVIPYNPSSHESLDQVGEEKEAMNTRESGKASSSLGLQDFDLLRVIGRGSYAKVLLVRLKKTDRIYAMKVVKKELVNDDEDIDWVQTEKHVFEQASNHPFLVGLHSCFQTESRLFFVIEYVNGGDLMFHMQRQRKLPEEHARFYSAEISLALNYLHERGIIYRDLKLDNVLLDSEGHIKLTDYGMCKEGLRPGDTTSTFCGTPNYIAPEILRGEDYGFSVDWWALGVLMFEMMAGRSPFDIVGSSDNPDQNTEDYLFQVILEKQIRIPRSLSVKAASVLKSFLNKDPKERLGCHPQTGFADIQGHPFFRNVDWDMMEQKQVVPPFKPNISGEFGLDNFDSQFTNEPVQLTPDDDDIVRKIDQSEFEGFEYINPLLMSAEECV

[2] = molecular target: T2, Serine/threonine-protein kinase TAO2 (Homo sapiens) (UniProt Q9UL54); assay: Selectivity interaction (KinomeScan (DiscoverX)) EUB0000045b TAOK2
T2 sequence (whole entry): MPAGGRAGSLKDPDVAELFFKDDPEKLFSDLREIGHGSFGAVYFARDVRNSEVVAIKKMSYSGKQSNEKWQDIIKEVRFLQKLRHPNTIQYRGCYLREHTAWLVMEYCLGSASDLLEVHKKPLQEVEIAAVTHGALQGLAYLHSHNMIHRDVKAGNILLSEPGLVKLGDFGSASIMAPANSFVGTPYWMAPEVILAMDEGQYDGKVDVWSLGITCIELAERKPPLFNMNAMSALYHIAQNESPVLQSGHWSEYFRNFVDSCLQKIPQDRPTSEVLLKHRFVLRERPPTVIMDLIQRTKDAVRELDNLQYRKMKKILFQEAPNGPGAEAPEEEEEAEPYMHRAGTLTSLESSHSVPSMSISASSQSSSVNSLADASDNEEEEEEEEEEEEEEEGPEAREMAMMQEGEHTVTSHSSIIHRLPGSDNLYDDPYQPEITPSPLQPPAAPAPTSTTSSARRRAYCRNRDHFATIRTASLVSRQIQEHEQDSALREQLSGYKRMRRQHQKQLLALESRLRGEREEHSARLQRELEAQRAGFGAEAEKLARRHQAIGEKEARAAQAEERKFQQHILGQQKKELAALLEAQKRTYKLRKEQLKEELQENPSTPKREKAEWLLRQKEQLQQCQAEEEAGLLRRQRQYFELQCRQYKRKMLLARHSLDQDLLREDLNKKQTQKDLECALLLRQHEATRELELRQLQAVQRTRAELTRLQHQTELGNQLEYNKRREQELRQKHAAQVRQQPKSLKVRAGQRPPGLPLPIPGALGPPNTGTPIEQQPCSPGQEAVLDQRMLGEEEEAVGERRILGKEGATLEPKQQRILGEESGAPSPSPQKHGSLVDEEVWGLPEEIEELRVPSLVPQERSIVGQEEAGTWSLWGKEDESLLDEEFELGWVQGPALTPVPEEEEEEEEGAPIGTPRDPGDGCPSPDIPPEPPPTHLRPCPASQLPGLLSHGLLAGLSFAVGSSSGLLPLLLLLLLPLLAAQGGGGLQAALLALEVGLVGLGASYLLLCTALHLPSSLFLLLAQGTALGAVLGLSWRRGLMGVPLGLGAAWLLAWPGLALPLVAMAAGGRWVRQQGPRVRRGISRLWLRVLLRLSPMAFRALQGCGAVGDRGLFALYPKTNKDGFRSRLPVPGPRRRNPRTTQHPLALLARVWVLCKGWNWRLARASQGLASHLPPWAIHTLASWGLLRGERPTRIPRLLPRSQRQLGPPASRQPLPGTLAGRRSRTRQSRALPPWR

Compound	% binding [1] [%]	% of control ([2]; at 1 µM) [%]	% of control ([2]; at 10 µM) [%]
COc1cc(N(C)c2ccnc3ccc(C(F)(F)F)cc23)cc(OC)c1OC	82	–	–
C=CC(=O)Nc1cc(-n2c(=O)ccc3cnc4ccc(-c5ccc(NS(C)(=O)=O)cc5)cc4c32)ccc1C	–	80	100
